Measured values: patent US20260232573A1, “DEGARELIX ORGANIC SOLVENT FORMULATIONS” (TOLMAR INTERNATIONAL LIMITED, priority 2023, published 2026)
Non-standard residues stand in square brackets, D forms with d. Residues, ends and D or L forms follow the SMILES beside them. *: point of attachment. dPhe(4-NHCONH2) = NC(=O)Nc1ccc(C[C@@H](N)C(=O)O)cc1; Dihydroorotyl(S) = O=C1C[C@@H](C(=O)*)NC(=O)N1; dPhe(4-Cl) = N[C@H](Cc1ccc(Cl)cc1)C(=O)O; Phe(4-NH2) = Nc1ccc(C[C@H](N)C(=O)O)cc1; d2Nal = N[C@H](Cc1ccc2ccccc2c1)C(=O)O; Lys(iPr) = CC(C)NCCCC[C@H](N)C(=O)O; d3Pal = N[C@H](Cc1cccnc1)C(=O)O

Assay type: physicochemical
From the text: Various organic solvents were screened for the maximal solubility of DgA-DS. […] Other solvents tested include-benzyl alcohol, PEG 300, propylene carbonate, triacetin, triethyl citrate, ethyl acetate, and benzyl benzoate.
Bulk solution: To produce the drug/solvent bulk solution comprising the active pharmaceutical ingredient (DgA or DgC), the desired amount of the DgA-DS or DgC-DS was combined with the solvent NMP or DMSO or combination of solvents with or without co-solvent or other additives, in the indicated amounts (see individual experiments below). The API and solvent were combined in a glass vial or jar and blanketed with nitrogen. Jars were mixed using the jar mill, Turbula, or shaker at room temperature until homogeneous. DgA or DgC are very soluble in NMP or DMSO and can load higher concentrations (at least 40% w/w).

Compound | concentration that can be loaded (solubility) | solubility | solubility capacity of degarelix
degarelix citrate [DgC] | at least 40 % w/w |  | 
CC(=O)N[C@H](Cc1ccc2ccccc2c1)C(=O)N[C@H](Cc1ccc(Cl)cc1)C(=O)N[C@H](Cc1cccnc1)C(=O)N[C@@H](CO)C(=O)N[C@@H](Cc1ccc(NC(=O)[C@@H]2CC(=O)NC(=O)N2)cc1)C(=O)N[C@H](Cc1ccc(NC(N)=O)cc1)C(=O)N[C@@H](CC(C)C)C(=O)N[C@@H](CCCCNC(C)C)C(=O)N1CCC[C@H]1C(=O)N[C@H](C)C(N)=O [DgA-DS, degarelix acetate] (Ac-[d2Nal][dPhe(4-Cl)][d3Pal]S[Phe(4-NH2)](Dihydroorotyl(S))[dPhe(4-NHCONH2)]L[Lys(iPr)]P[dA]-NH2) | at least 40 % w/w | either insoluble or has solubility limits much lower than NMP, DMSO or DMA | 35-40 % w/w
